Data reported in patent US8889397B2, “Nucleotides for prevention and treatment of bacterial and fungal pathologies” (priority 2003, dated 2014).

Assays:
[1] = system: K12; assay: inhibition of bacterial growth by peptide-ODN conjugate (viable cell count); type: cell-based, E. coli; conditions: conjugate 4 μM, 40 μM or 400 μM, 37° C., 2 hours
Experimental: The inhibition of bacterial growth by peptide-[…] conjugate was evaluated by examining the effect of conjugate dose on the ability of conjugate to inhibit K12 growth. In this study, a peptide-ODN conjugate having the sequence
was added to the 1/50 diluted O/N K12 cell cultures, and final concentration of 4 μM, 40 μM, or 400 μM, with addition of equal volume water as a negative control, and incubated with shaking at 37° C. Immediately after, diluting the O/N culture 1/50, peptide-ODN conjugate was added to final concentration of 4 μM, 40 μM, or […], with addition of equal volume water as a negative control, and incubated with shaking at 37° C. After 2 hours, growth was measured by viable cell count by diluting the cultures and plating in triplicate on LB plates. […] Reduction of Mouse Bacterial Load in Blood by Peptide-ODN Conjugate.

[2] = system: FtsZ RNA; assay: in vitro cleavage of FtsZ RNA by DNA enzyme in a cell-free system; type: biochemical; conditions: 37° C., 100 nM template FtsZ RNA, 100 μM DNA enzyme, 10 mM MgCl2, pH 7.5; products 368 nt and 857 nt
Experimental: Lane 1 is a control reaction incubated for 2 hrs in the absence of DNA enzyme. S: substrate; P1 (857 nt) and P2 (368 nt): DNA enzyme digestion products.
The ability of the pssXGb(FtsZ-DZ) expression vector of the present invention to produce DNA enzyme molecules in bacterial cells was tested by evaluating the cleavage activity of the designed DNA enzyme in a cell-free system. The 1225 nt FtsZ RNA, produced by in vitro transcription, is used as a substrate and the cleavage assay is carried out at 37° C. for various period of time as indicated in a 10 μl reaction containing 10 mM MgCl2, 50 mM Tris-HCl, pH 7.5, 100 nM template FtsZ RNA, 100 μM DNA enzyme, and 10 units RNasin.

[3] = system: SM101; assay: inhibition of bacterial growth by ODN (OD600 or viable cell count); type: cell-based, E. coli; conditions: ODN 40 μM or 400 μM, 30° C., 2, 4 or 6 h
Experimental: Immediately after diluting the O/N cultures 1/50, ODN was added to final concentrations of 4 uM, 40 μM or 400 μM with equal volume water as a negative control, and incubated with shaking at 30° C. After 2, 4 or 6 h, the growth was measured by viable cell count, which was done by diluting the cultures and plating on LB plates with streptomycin.
The inhibition of bacterial growth by ODN was evaluated by examining the effect of ODN dosage on SM101 growth. In this study, an ODN having the sequence CTC ATA CTC T was added to the 1/50 diluted O/N SM101 cell cultures, at final concentration of 40 μM or […] with addition of equal volume water as a negative control, and incubated with shaking at 30° C. After 2, 4 or 6 h, the growth was measured by either the optical density at 600 nm (OD600) or viable cell count, which was done by diluting the cultures and plating them in triplicate on LB plates with streptomycin.

[4] = system: E. coli XL10-gold(kan); assay: growth of XL10-gold(kan) transformed with ODN expression plasmid; type: cell-based; conditions: XL10-gold(kan) transformants; LB with chloramphenicol, 37° C. O/N
Experimental: The transformants were plated on LB media with chloramphenicol and incubated at 37° C.
The antibacterial efficacy of the ODN CYGX080103 was further evaluated in two separate experiments. The first was designed to examine the conditionally lethal effect of the ODN expression plasmid in the host cell DH5αPro, the bacterial strain employed in the library screening. The second experiment was designed to study the effect of the ODN expression plasmid on other bacterial strains. In the first study, the ODN expression plasmid and the plasmid without ODN insert as negative control were transformed into DH5αPro and plated onto LB media with or without 200 ng/ml aTc. […] DH5αPro cells carrying the plasmid without the ODN insert grow on both media (FIG. 10B). In the second study, the ODN expression plasmid and the plasmid without ODN insert were transformed into E. coli XL10-gold(kan). The resulted transformants were plated on LB media with chloramphenicol and incubated at 37° C.
In this study, the ODN expression plasmid As080103, having the sequence CYGX080103 listed above, and plasmid pssxGb without ODN insert as negative control, were transformed into E. coli XL10-goldokan). The resulting cell cultures were plated on LB media with chloramphenicol and incubated at 37° C.

[5] = system: DH5αPro; assay: conditionally lethal effect of ODN expression plasmid in DH5αPro on LB media with or without aTc; type: cell-based; conditions: DH5αPro carrying the plasmid; with or without 200 ng/ml aTc
Experimental: Colonies were grown in duplicate in LB plates with or without aTc. Positive clone (containing the pssXGb vector including the sequence CYGX080103) is marked by an arrow.
The CYGX080103 plasmid and the plasmid without ODN insert as negative control were transformed into DH5αPro and plated onto LB media with or without 200 ng/ml aTc. […] DH5αPro carrying plasmid without the ODN insert grows on both media (FIG. 10B).
Since the ssDNA expression library was constructed based on a tetracycline inducible vector, bacterial cells containing the ssDNA expression library were plated in duplicate in Luria broth (LB) plates in the presence or absence 200 ng/ml aTc. […] Plasmid DNA was extracted from the positive colony from the library screening, and the insert sequences determined by 3′ end single-pass sequencing. The insert generated by this set of experiments was named CYGX080103, with sequence of:
The antibacterial efficacy of the ODN CYGX080103 was further evaluated in two separate experiments. The first was designed to examine the conditionally lethal effect of the ODN expression plasmid in the host cell DH5αPro, the bacterial strain employed in the library screening. The second experiment was designed to study the effect of the ODN expression plasmid on other bacterial strains. […]

With “KFFKFFKFFK-CTC ATA CTC T (KFFKFFKFFK peptide conjugated to PNA) [peptide-ODN conjugate, peptide-PNA conjugate]” the cell growth inhibited [1] was 82-99.8%.

For “5′-GTTTCGAAGGCTAGCTACAACGATCATCCAG-3′ (listed as DNA, chemistry not fully specified) [CYGXFtsZDZ, 31 nt 10-23 DNA enzyme targeted against the GU site at position 880 of FtsZ mRNA]”, the “cleavage of FtsZ RNA” value [2] was “effectively cleave the FtsZ RNA in as short a time as 0.5 hr”.

In the case of “5′(CTC ATA CTC T)3′ (DNA CTCATACTCT; chemistry not given here) [CYGXacpP, ODN targeting the bacterial essential fatty acid biosynthesis gene acpP]”, the cell growth inhibited [3] is reported as 86-96%.

B1: 5′-CTTTCAACAGTTTTGATGACCTTTGCTGACCATACAATTGCGATATCGTGGGGAGTGAGAG-3′ (nucleic acid)
DNA: CTTTCAACAGTTTTGATGACCTTTGCTGACCATACAATTGCGATATCGTGGGGAGTGAGAG
modifications: expressed or natural sequence
notes: ODN insert of the positive clone from ssDNA expression library screening
B1 was tested, and the “growth on LB media” value [4] was “no XL10-gold(kan) carrying ODN expression plasmid grew” and the “growth on LB media” value [5] was “grow normally on the media without aTc but not on media with aTc”.
